Where two headings read alike, the source gives them in different places.
Biological target: T1, LmjIPCS (inositol phosphorylceramide synthase from L. major) (Leishmania major, UniProt E9AFX2)
T1 sequence (E9AFX2 1-338): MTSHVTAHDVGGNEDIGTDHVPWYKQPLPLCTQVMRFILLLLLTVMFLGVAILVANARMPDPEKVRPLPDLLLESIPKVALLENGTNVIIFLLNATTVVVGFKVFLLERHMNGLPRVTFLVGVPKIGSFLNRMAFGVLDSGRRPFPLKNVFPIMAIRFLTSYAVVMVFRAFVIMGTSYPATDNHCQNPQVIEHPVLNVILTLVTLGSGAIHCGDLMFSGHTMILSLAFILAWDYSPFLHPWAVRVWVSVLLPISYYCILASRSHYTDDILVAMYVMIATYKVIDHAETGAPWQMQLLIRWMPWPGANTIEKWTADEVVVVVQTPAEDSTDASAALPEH
Experiment: biochemical
Format: biochemical
Set-up: inhibition: dose or concentration left out as unconfirmed
Details: for inhibition: read-out: inhibition LmjIPCS; for inhibition at 20000 µM: read-out: 20mM inhibition LmjIPCS

[1] = screening of NINDS set, sheet Screen 1

O=C1c2ccc(O)c(O)c2C(=O)c2c(O)ccc(O)c21 [QUINALIZARIN]
inhibition (NINDS set screen): -2.7%

C=C[C@H]1C[N@@]2CC[C@H]1C[C@@H]2[C@@H](O)c1ccnc2ccc(OC)cc12 [QUINIDINE]
20mM inhibition LmjIPCS: 55%

O=C(O)c1cccnc1C(=O)O [QUINOLINIC ACID]
inhibition at 20000 µM: 5.51%

CNC(C)C(O)c1ccccc1 (centres unmarked) [RACEPHEDRINE]
20mM inhibition LmjIPCS: 41%

Cc1c(NC(C)C)c(=O)n(-c2ccccc2)n1C [RAMIFENAZONE]
inhibition (NINDS set screen): 0.419%

CNC(=C[N+](=O)[O-])NCCSCc1ccc(CN(C)C)o1 [RANITIDINE]
inhibition: 1.29%

COC(=O)[C@H]1[C@H]2C[C@H]3c4[nH]c5ccccc5c4CCN3C[C@H]2CC[C@@H]1O [RAUWOLSCINE]
inhibition: 12%

CC(=O)Oc1cccc(O)c1 [RESORCINOL MONOACETATE]
inhibition [1]: 4%

Oc1cccc(O)c1 [RESORCINOL]
inhibition: 1.29%

Oc1ccc(/C=C/c2cc(O)cc(O)c2)cc1 [RESVERATROL]
inhibition: -9%

CC1=C(/C=C/C(C)=C/C=C/C(C)=C/CO)C(C)(C)CCC1 [RETINOL]
inhibition (NINDS set screen): 21%

CC(=O)OC/C=C(C)/C=C/C=C(C)/C=C/C1=C(C)CCCC1(C)C [RETINYL ACETATE]
inhibition at 20000 µM: 9%

CCCCCCCCCCCCCCCC(=O)OC/C=C(C)/C=C/C=C(C)/C=C/C1=C(C)CCCC1(C)C [RETINYL PALMITATE]
inhibition (NINDS set screen): 18%

COc1ccc(/C=C/c2cc(O)cc(O[C@@H]3O[C@H](CO)[C@@H](O)[C@H](O)[C@H]3O)c2)cc1O [RHAPONTIN]
inhibition [1]: 3%

Cc1cc2nc3c(=O)[nH]c(=O)nc-3n(C[C@H](O)[C@H](O)[C@H](O)CO)c2cc1C [RIBOFLAVIN]
inhibition: 2.26%

CO[C@H]1/C=C/O[C@@]2(C)Oc3c(C)c(O)c4c(O)c(c(/C=N/N5CCN(C)CC5)c(O)c4c3C2=O)NC(=O)/C(C)=C\C=C\[C@H](C)[C@H](O)[C@@H](C)[C@@H](O)[C@@H](C)[C@H](OC(C)=O)[C@@H]1C [RIFAMPIN]
inhibition at 20000 µM: 27%

CO[C@H]1/C=C/O[C@@]2(C)Oc3c(C)c(O)c4c(O)c(c5c(nc6cc(C)ccn65)c4c3C2=O)NC(=O)/C(C)=C\C=C\[C@H](C)[C@H](O)[C@@H](C)[C@@H](O)[C@@H](C)[C@H](OC(C)=O)[C@@H]1C [RIFAXIMIN]
inhibition at 20000 µM: 6%

CC(NCCc1ccc(O)cc1)C(O)c1ccc(O)cc1 (centres unmarked) [RITODRINE]
20mM inhibition LmjIPCS: 58%

CS(=O)(=O)c1ccc(C2=C(c3ccccc3)C(=O)OC2)cc1 [ROFECOXIB]
inhibition (NINDS set screen): -2%

Cn1c([N+](=O)[O-])cnc1COC(N)=O [RONIDAZOLE]
inhibition (NINDS set screen): 0.0172%

CN(CCOc1ccc(CC2SC(=O)NC2=O)cc1)c1ccccn1 (centres unmarked) [ROSIGLITAZONE]
inhibition [1]: 2.64%

O=C(/C=C/c1ccc(O)c(O)c1)O[C@H](Cc1ccc(O)c(O)c1)C(=O)O [ROSMARINIC ACID]
20mM inhibition LmjIPCS: 58%

O=C1C=CC(=C(c2ccc(O)cc2)c2ccc(O)cc2)C=C1 [ROSOLIC ACID]
inhibition at 20000 µM: -11%

CC(C)c1nc(N(C)S(C)(=O)=O)nc(-c2ccc(F)cc2)c1/C=C/[C@@H](O)C[C@@H](O)CC(=O)O [ROSUVASTATIN]
inhibition (NINDS set screen): 12%

C=C(C)[C@H]1Cc2c(ccc3c2O[C@@H]2COc4cc(OC)c(OC)cc4[C@@H]2C3=O)O1 [ROTENONE]
20mM inhibition LmjIPCS: 43%

CC[C@H]1OC(=O)[C@H](C)[C@@H](O[C@H]2C[C@@](C)(OC)[C@@H](O)[C@H](C)O2)[C@H](C)[C@@H](O[C@@H]2O[C@H](C)C[C@H](N(C)C)[C@H]2O)[C@](C)(O)C[C@@H](C)/C(=N\OCOCCOC)[C@H](C)[C@@H](O)[C@]1(C)O [ROXITHROMYCIN]
20mM inhibition LmjIPCS (NINDS set screen, single concentration printed as 20mM): 59%

CC[C@@]1(O)C[C@H](O)c2c(cc3c(c2O)C(=O)c2c(O)ccc(O)c2C3=O)[C@H]1C(=O)OC [RUTILANTINONE]
inhibition at 20000 µM: 27%

N[C@@H](CCC(=O)N[C@@H](CSC(CC(=O)O)C(=O)O)C(=O)NCC(=O)O)C(=O)O (stereo partly drawn) [S-(1,2-DICARBOXYETHYL)GLUTATHIONE]
inhibition (NINDS set screen): 14%

CSC(N)=NCCC[C@H](N)C(=O)O [S-METHYL-L-THIOCITRULLINE ACETATE]
inhibition [1]: 10%

O=C1NS(=O)(=O)c2ccccc21 [SACCHARIN]
inhibition at 20000 µM: 3.67%

C=CCc1ccc2c(c1)OCO2 [SAFROLE]
inhibition at 20000 µM: 1.28%

OCc1ccccc1O[C@@H]1O[C@H](CO)[C@@H](O)[C@H](O)[C@H]1O [SALICIN]
inhibition at 20000 µM: 14%

OCc1ccccc1O [SALICYL ALCOHOL]
inhibition (NINDS set screen): 23%

NC(=O)c1ccccc1O [SALICYLAMIDE]
inhibition (NINDS set screen): 0.588%

CC[C@@H](C(=O)[C@@H](C)[C@@H](O)[C@H](C)[C@@H]1O[C@@H]([C@@H](CC)C(=O)O)CC[C@@H]1C)[C@H]1O[C@]2(C=C[C@@H](O)[C@]3(CC[C@@](C)([C@H]4CC[C@](O)(CC)[C@H](C)O4)O3)O2)[C@H](C)C[C@@H]1C [SALINOMYCIN]
inhibition at 20000 µM: 29%

COc1cc2c(cc1O)CCNC2C (centres unmarked) [SALSOLINE]
20mM inhibition LmjIPCS: 12%

O=C(O)c1cn(-c2ccc(F)cc2)c2cc(N3CCNCC3)c(F)cc2c1=O [SARAFLOXACIN]
inhibition (NINDS set screen): 18%

CN1[C@@H]2C[C@@H](OC(=O)[C@H](CO)c3ccccc3)C[C@H]1[C@@H]1O[C@@H]12 [SCOPOLAMINE]
inhibition at 20000 µM: -2.65%

Source: paper PMC7802075 (ACS Infectious Diseases, 2020)
